Read-outs that look alike come from different tables or passages of the source.
Experiments:
[1] = Absorption of leupeptin into plasma after intramuscular injection (FIG. 2); assay type: in vivo, rats; details: leupeptin 18 mg/kg intramuscular injection in hind-limbs
Protocol: To determine that leupeptin was effectively being absorbed into plasma following intramuscular (“IM”) administration in hind-limbs of 18 mg/kg, blood was withdrawn at 60, 75, 90, 120, 180 minutes and 24 hours after the IM injection (FIG. 2).

calpain [2] = details: rats, IP, muscle isolated after 2 hours
Protocol: An initial series of toxicology experiments was performed in rats to assess the effect of CLA at various doses, on animal viability. […] A series of experiments to examine the ability of CLA vs. leupeptin to decrease activated calpain levels and inhibit muscle wasting was conducted. In the experiment shown in Table 4, rats were utilized to assess the effect of IP injection of either leupeptin or CLA into the hind limb muscle on their ability to inhibit calpain activity. To this end, four rats were injected IP with either leupeptin or CLA. After 2 hours, the muscle was isolated, homogenized, and assayed for remaining calpain activity by the standard assay.

calpain [3] = test: Calpain activities of muscle samples from leupeptin-treated MDX mice; assay type: in vivo, mouse; details: for Calpain activities of muscle samples, Anterior tibialis / Calpain activities of muscle samples, Diaphragm / Calpain activities of muscle samples, Gastrocnemius / Calpain activities of muscle samples, Soleus: mdx mice, average of 3 determinations
Protocol: (§1) It is well documented that as, observed in DMD and BMD, dystrophin is dysfunctional/absent in the murine MDX model of muscular dystrophy. […] A series of studies to test the ability of the calpain inhibitor, leupeptin, to delay and/or prevent features of calcium-induced damage to dystrophic myofibers was initiated. Control C57BL/10SNJ mice were treated with intramuscular injections of normal saline. The MDX mice were treated intramuscularly with either normal saline or 12 mg/kg leupeptin or 18 mg/kg leupeptin twice daily. All injections were delivered in the hind-limbs in various locations to avoid muscle damage due to repeated injections at the same location. The gastrocnemius, soleus, anterior tibialis, and diaphragm muscles were examined in all animals.
To further examine whether the beneficial/protective action of leupeptin was associated with a change in calpain activity, the activity of the enzyme was assessed in the muscle various muscles taken from the control, and MDX […]±treatment with leupeptin.

[4] = test system: opponens pollicis and abductor pollicis myofibers; test: Monkey study, oral leupeptin: myofiber diameter after median nerve repair; assay type: in vivo, monkeys; details: for percentage atrophy: loss of myofiber diameter vs left, unoperated control group: 3 months post nerve repair
Protocol: Subsequent to the above studies another series of experiments were performed on the monkeys to assess another route of leupeptin administration in these animals (8). In this regard, oral delivery of leupeptin, after median nerve transection and epineural nerve repair, was studied for its potential benefits to neuromuscular recovery. […] When plasma leupeptin concentrations were 3 mg or greater, morphologic and functional motor recovery were facilitated after nerve repair.
When expressed as a percentage atrophy, in comparison to the left, unoperated control group, the right control group lost 63 percent of its myofiber diameter; the 3-mg group lost 53% of its myofiber diameter; the 6-mg group 23%; the 12-mg group 11%; and the 18-mg group only 8%.

[5] = test system: rat hind limb muscle (sciatic nerve denervation); details: for % loss (muscle atrophy due to denervation): rat
Protocol: Denervation was carried out on one of the hind limb sciatic nerves of the rat. Denervation was allowed to proceed for 7 days. Either leupeptin or CLA was injected 2×/day in forelimb muscle for seven days. The non-denervated hind limb was used as the control. Leupeptin and/or CLA were injected into alternating forelimb muscles for a period of seven days after which, animals were sacrificed, muscles excised and weighed.

MDX mice = test: MDX mouse study: myofiber diameter after intramuscular leupeptin; assay type: in vivo; details: for Myofiber diameter, Anterior tibialis / Myofiber diameter, Diaphragm / Myofiber diameter, Gastrocnemius / Myofiber diameter, Soleus: mdx mice, ± SD
Protocol: as §1

[6] = Monkey study, intramuscular leupeptin: toxicology and echocardiograms; assay type: in vivo, Cebus apella
Protocol: In order to test the hypothesis that in vivo inhibition of calpains by leupeptin can facilitate neuromuscular recovery by inhibiting denervation atrophy of the skeletal-muscle target after complete peripheral nerve transection and delayed nerve repair (7), a monkey study (Cebus apella) was undertaken. This median-nerve model was chosen to approximate human anatomic and regenerative aspects.
Complete blood counts and clotting times after intramuscular leupeptin administration at 18 mg/kg, twice daily for 24 weeks, were not affected in treated animals, when compared to controls. In controls, mean values were as follows: WBC=4.83±1.04×10^3; RBC=5.34±0.34×10^6; hematocrit=37.97%±2.09; platelets=3.30±0.05×10^5; prothrombin time=9.68±0.36 sec; partial thromboplastin time=28.78±1.32 sec. In treated animals, mean values were: WBC=6.67±2.26×10^3; RBC=5.55±0.26×10^6; hematocrit=38.18%+1.69; platelets 4.33±0.18×10^5; prothrombin time=10.88±0.49 sec; partial thromboplastin time=33.06±0.76 sec.
Echocardiograms: To assure that leupeptin was causing no pathological effects on heart muscle, the cardiac lateral wall and septum were measured in millimeters in all animals prior to leupeptin treatment and 25 weeks after delayed nerve repair. Prior to treatment, in animals designated as controls, the lateral wall was 2.88±0.33 mm and the septum was 2.84±0.2 mm. Twenty-five weeks later in control animals, the lateral wall was 3.0±0.5 mm and the septum was 2.9±0.2 mm. Prior to treatment, in animals designated to receive leupeptin, the lateral wall was 3.5±0.2 mm and the septum was 2.9±0.4 mm. Twenty-five weeks later, in leupeptin-treated animals, the lateral wall was 3.2±0.1 mm and the septum was 2.8±0.3 mm. Importantly, there were no significant statistical differences within either the control or treatment groups or between the control and treatment groups (data not shown).

[7] = 12 mg/kg leupeptin intramuscularly twice daily
[8] = 18 mg/kg leupeptin intramuscularly twice daily
[9] = leupeptin-treated monkeys, twenty-five weeks after delayed nerve repair
[10] = monkeys, intramuscular leupeptin 18 mg/kg twice daily for 24 weeks

CC(=O)N[C@@H](CC(C)C)C(=O)N[C@@H](CC(C)C)C(=O)N[C@H](C=O)CCCNC(=N)N [Leupeptin]
peak plasma level [1]: 4.5 µg/mL
time of plasma peak [1]: 1 h
concentration at 24 h ([1]; rat, plasma, 24 hr, read-out: plasma level by 24 hr): 0 ng/mL
% inhibition of muscle calpain activity (calpain [2]; 75 μmoles): 20%
% inhibition/μmole (calpain [2]): 0.26%
Fold (effectiveness per μmole relative to leupeptin) (calpain [2]): 1
decrease in calpain activity vs untreated MDX muscles (calpain [3]; anterior tibialis, 12 mg/kg): 50%
decrease in calpain activity vs untreated MDX muscles (calpain [3]; anterior tibialis, 18 mg/kg): 77%
decrease in calpain activity vs untreated MDX muscles (calpain [3]; diaphragm, 12 mg/kg): 51%
decrease in calpain activity vs untreated MDX muscles (calpain [3]; diaphragm, 18 mg/kg): 71%
decrease in calpain activity vs untreated MDX muscles (calpain [3]; gastrocnemius, 12 mg/kg): 84%
decrease in calpain activity vs untreated MDX muscles (calpain [3]; gastrocnemius, 18 mg/kg): 60%
Calpain activities of muscle samples, Anterior tibialis (calpain [3]; 12 mg/kg leupeptin): 155 ± 16 cpm/200-μg protein
Calpain activities of muscle samples, Diaphragm (calpain [3]; 12 mg/kg leupeptin): 26 ± 4 cpm/200-μg protein
Calpain activities of muscle samples, Gastrocnemius (calpain [3]; 12 mg/kg leupeptin): 27 ± 7 cpm/200-μg protein
Calpain activities of muscle samples, Soleus (calpain [3]; 12 mg/kg leupeptin): 187 ± 16 cpm/200-μg protein
Calpain activities of muscle samples, Anterior tibialis (calpain [3]; 18 mg/kg leupeptin): 71 ± 11 cpm/200-μg protein
Calpain activities of muscle samples, Diaphragm (calpain [3]; 18 mg/kg leupeptin): 17 ± 5 cpm/200-μg protein
Calpain activities of muscle samples, Gastrocnemius (calpain [3]; 18 mg/kg leupeptin): 67 ± 8 cpm/200-μg protein
Calpain activities of muscle samples, Soleus (calpain [3]; 18 mg/kg leupeptin): 102 ± 9 cpm/200-μg protein
decrease in calpain activity vs untreated MDX muscles (calpain [3]; soleus, 12 mg/kg): 44%
decrease in calpain activity vs untreated MDX muscles (calpain [3]; soleus, 18 mg/kg): 70%
mean myofiber diameter vs left control group ([4]; left abductor pollicis, 6 months, 6-mg, 12-mg, 18-mg groups, p<0.01 (FIG. 5)): small but significant increase
mean myofiber diameter vs right control group ([4]; right abductor pollicis, 6 months after nerve repair, 6-mg, 12-mg, 18-mg groups, p<0.01 (FIG. 5)): significant increase
percent atrophy: loss of myofiber diameter vs left, unoperated abductor pollicis ([4]; right abductor pollicis, 6 months after nerve repair, oral leupeptin 3-mg group): 30%
percent atrophy: loss of myofiber diameter vs left, unoperated abductor pollicis ([4]; right abductor pollicis, 6 months after nerve repair, oral leupeptin 6-mg group): 5%
increase in myofiber diameter (no atrophy) vs left, unoperated abductor pollicis ([4]; right abductor pollicis, 6 months after nerve repair, oral leupeptin 12-mg group): 1.2%
increase in myofiber diameter (no atrophy) vs left, unoperated abductor pollicis ([4]; right abductor pollicis, 6 months after nerve repair, oral leupeptin 18-mg group): 1.3%
mean myofiber diameter vs right control group ([4]; right opponens pollicis, 3 months after nerve repair, all leupeptin treatment groups, p<0.01 (FIG. 4)): significant increase
percentage atrophy: loss of myofiber diameter vs left, unoperated control group ([4]; right opponens pollicis, oral leupeptin 3-mg group): 53%
percentage atrophy: loss of myofiber diameter vs left, unoperated control group ([4]; right opponens pollicis, oral leupeptin 6-mg group): 23%
percentage atrophy: loss of myofiber diameter vs left, unoperated control group ([4]; right opponens pollicis, oral leupeptin 12-mg group): 11%
percentage atrophy: loss of myofiber diameter vs left, unoperated control group ([4]; right opponens pollicis, oral leupeptin 18-mg group): 8%
% loss (muscle atrophy due to denervation) ([5]; 1.5 mg/kg injected 2x/day for seven days): 30.9 ± 4%
% loss (muscle atrophy due to denervation) ([5]; 15.0 mg/kg injected 2x/day for seven days): 2.6 ± 0.3%
health / toxic effect in denervation study ([5]; rats, seven days of injections): remained healthy without any apparent negative toxic effect
increase in myofiber diameter vs untreated MDX muscle (MDX mice; anterior tibialis, 12 mg/kg): 35%
increase in myofiber diameter vs untreated MDX muscle (MDX mice; anterior tibialis, 18 mg/kg): 36%
increase in myofiber diameter vs untreated MDX muscle (MDX mice; diaphragm, 12 mg/kg): 25%
increase in myofiber diameter vs untreated MDX muscle (MDX mice; diaphragm, 18 mg/kg): 25%
increase in myofiber diameter vs untreated MDX muscle (MDX mice; gastrocnemius, 12 mg/kg): 37%
increase in myofiber diameter vs untreated MDX muscle (MDX mice; gastrocnemius, 18 mg/kg): 39%
Myofiber diameter, Anterior tibialis (MDX mice; [7]): 37.5 ± 2.8 µm
Myofiber diameter, Diaphragm (MDX mice; [7]): 21.8 ± 0.9 µm
Myofiber diameter, Gastrocnemius (MDX mice; [7]): 32.9 ± 2.6 µm
Myofiber diameter, Soleus (MDX mice; [7]): 24.7 ± 1.8 µm
Myofiber diameter, Anterior tibialis (MDX mice; [8]): 38.3 ± 1.3 µm
Myofiber diameter, Diaphragm (MDX mice; [8]): 21.7 ± 1.8 µm
Myofiber diameter, Gastrocnemius (MDX mice; [8]): 34 ± 2.7 µm
Myofiber diameter, Soleus (MDX mice; [8]): 25.5 ± 2.3 µm
increase in myofiber diameter vs untreated MDX muscle (MDX mice; soleus, 12 mg/kg): 22%
increase in myofiber diameter vs untreated MDX muscle (MDX mice; soleus, 18 mg/kg): 25%
cardiac lateral wall (echocardiogram) [6, 9]: 3.2±0.1 mm
cardiac septum (echocardiogram) [6, 9]: 2.8±0.3 mm
RBC [6, 10]: 5.55±0.26×10^6
WBC [6, 10]: 6.67±2.26×10^3
blood chemistry analyses, treated vs control [6, 10]: no significant differences between treated and control animals
hematocrit [6, 10]: 38.18%
partial thromboplastin time [6, 10]: 33.06 ± 0.76 s
platelets [6, 10]: 4.33±0.18×10^5
prothrombin time [6, 10]: 10.88 ± 0.49 s
